# Laboratory results taken from PMC12892976, “Alkylation-based optimization of antifungal FPPS inhibitors yields a potent, broad-spectrum lipophilic zoledronate derivative” (mBio, 2025).
# Read-outs that look alike come from different tables or passages of the source.
# Assays:
# Candida albicans [1] = test: MIC/MFC broth microdilution (CLSI); type: cell-based; conditions: Candida albicans SC5314
# Description: (§1) Antifungal susceptibility was determined by broth microdilution according to the CLSI guidelines described in M27-Ed4 ([16]). […] MFC was determined by back-plating drug-treated cultures from MIC broths onto SDA plates. The MFC was defined as the lowest concentration from which no colonies could be cultured.
# eight fungal species [2] = test: MIC/MFC summary across the eight fungal species of Table 1; type: cell-based
# Description: The antifungal activity of these compounds was evaluated according to CLSI guidelines ([16]).
# Candida glabrata [3] = test: checkerboard drug interaction (FICI, MICc);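 as to all read-outs here: simplified diagonal checkerboard screen pairing antifungals with FPPS inhibitors, FICI calculated under the Loewe additivity model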; type: cell-based; conditions: C. glabrata; for INH FD (MIC-MICc fold decrease): fold decrease of inhibitor MIC
# Description: (§2) Drug interactions between antifungals and FPPS inhibitors were investigated using a simplified checkerboard diagonal screening method ([45]). […] FICIs were determined according to the Loewe additivity model ([17]).
# [4] = tested on: Cryptococcus deuterogattii; test: MIC/MFC broth microdilution (CLSI); conditions: Cryptococcus deuterogattii;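 also: broth microdilution per CLSI M27-Ed4. MFC is the lowest concentration yielding no colonies when MIC broths are subcultured onto SDA plates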
# Description: as §1
# Candida glabrata [5] = test: MIC/MFC broth microdilution (CLSI); conditions: Nakaseomyces glabratus, CBS138;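 also: broth microdilution following CLSI M27-Ed4, MFC taken as the lowest drug level yielding no growth once MIC wells were subcultured on SDA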
# Description: as §1
# Trichophyton rubrum [6] = test: checkerboard drug interaction (FICI, MICc);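 also: simplified diagonal checkerboard screen pairing azole antifungals with FPPS inhibitors, FICI calculated under the Loewe additivity model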; type: cell-based; conditions: T. rubrum
# Description: as §2
# HEK-293T cells = test: MTT reduction cytotoxicity assay; type: cell-based; conditions: Homo sapiens, HEK-293T, 72 h, MTT, 72 h
# eight fungal species [7] = test: checkerboard interaction with azoles, summary across the eight species; type: cell-based; conditions: geometric mean MIC in combination with azoles
# From the text: Synergy between lipophilic FPPS inhibitors and azole antifungals was investigated by determining the fractional inhibitory concentration index (FICI) (Fig. 2; Table S1 Fig. S1) ([17]). […]. Derivatives PLA9 and 11, and PDA9, 11, and 12 antagonized azoles in C. albicans, C. neoformans, and C. deuterogattii, yet were largely synergistic in C. glabrata and S. cerevisiae. […].
# Cryptococcus neoformans [8] = test: MIC/MFC broth microdilution (CLSI); conditions: Cryptococcus neoformans;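 also: susceptibility testing followed the CLSI M27-Ed4 broth microdilution document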
# Description: as §1
# [9] = tested on: Cryptococcus deuterogattii; test: checkerboard drug interaction (FICI, MICc);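 as to all read-outs here: simplified diagonal checkerboard screen pairing antifungal drugs with FPPS inhibitors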; type: cell-based; conditions: C. deuterogattii; for INH FD (MIC-MICc fold decrease): fold decrease of inhibitor MIC
# Description: as §2
# Aspergillus flavus [10] = test: checkerboard drug interaction (FICI, MICc);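 also: simplified diagonal checkerboard screen pairing azole antifungals with FPPS inhibitors, FICI calculated under the Loewe additivity model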; type: cell-based; design: INH MICc (KET:INH) / INH MICc (FLC:INH): unit not given beside the values; conditions: A. flavus
# Aspergillus fumigatus [11] = test: checkerboard drug interaction (FICI, MICc); type: cell-based;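 also: simplified diagonal checkerboard screen pairing antifungals with FPPS inhibitors against Aspergillus fumigatus, with FICI calculated under the Loewe additivity model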
# Description: as §2
# Aspergillus flavus [12] = test: MIC/MFC broth microdilution (CLSI); conditions: ATCC204304
# Description: as §1
# Cryptococcus neoformans [13] = test: checkerboard drug interaction (FICI, MICc);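 as to all read-outs here: antifungal plus FPPS inhibitor pairs tested against Cryptococcus neoformans by simplified diagonal checkerboard screening, FICI computed under the Loewe additivity model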; type: cell-based; conditions: C. neoformans; for INH FD (MIC-MICc fold decrease): fold decrease of inhibitor MIC
# Description: as §2
# Aspergillus fumigatus [14] = test: MIC/MFC broth microdilution (CLSI); conditions: ATCC204305
# Description: as §1
# Candida albicans [15] = test: checkerboard drug interaction (FICI, MICc);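 as to all read-outs here: antifungal plus FPPS inhibitor combinations on Candida albicans tested by a simplified diagonal checkerboard screen, with FICI calculated under the Loewe additivity model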; type: cell-based; conditions: C. albicans; for INH FD (MIC-MICc fold decrease): fold decrease of inhibitor MIC
# Description: as §2
# Trichophyton rubrum [16] = test: MIC/MFC broth microdilution (CLSI); conditions: Trichophyton rubrum
# Description: as §1
# Saccharomyces cerevisiae [17] = test: checkerboard drug interaction (FICI, MICc); type: cell-based; design: INH MICc / INH MICc (ITR:INH) / INH MICc (KET:INH) / INH MICc (FLC:INH): unit not given beside the values;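 also: simplified diagonal checkerboard screen pairing antifungals with FPPS inhibitors, FICI calculated under the Loewe additivity model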
# Saccharomyces cerevisiae [18] = test: MIC/MFC broth microdilution (CLSI); type: cell-based; conditions: Saccharomyces cerevisiae S288c
# Description: as §1
# [19] = FLC:INH combination, MIC of the inhibitor in combination with FLC
# [20] = FLC:INH combination, fold decrease of FLC MIC
# [21] = ITR:INH combination, MIC of the inhibitor in combination with ITR
# [22] = ITR:INH combination, fold decrease of ITR MIC
# [23] = KET:INH combination, MIC of the inhibitor in combination with KET
# [24] = KET:INH combination, fold decrease of KET MIC
# [25] = Fractional Inhibitory Concentration Index, fluconazole + inhibitor
# [26] = Fractional Inhibitory Concentration Index, itraconazole + inhibitor
# [27] = Fractional Inhibitory Concentration Index, ketoconazole + inhibitor
# [28] = MIC of the inhibitor in combination with fluconazole
# [29] = MIC of the inhibitor in combination with itraconazole
# [30] = MIC of the inhibitor in combination with ketoconazole
# [31] = MIC-MICc fold decrease of fluconazole, negative = increase
# [32] = MIC-MICc fold decrease of itraconazole, negative = increase
# [33] = MIC-MICc fold decrease of ketoconazole, negative = increase
# [34] = MIC-MICc fold decrease of the inhibitor, with fluconazole
# [35] = MIC-MICc fold decrease of the inhibitor, with itraconazole
# [36] = MIC-MICc fold decrease of the inhibitor, with ketoconazole
structure (smiles),measurement,setting,value
CCCCCCCCCCCN1CCC[C@H]1C(=O)N[C@H](CC(=O)OC)C(=O)OC [dmPDA11],MFC,Candida albicans [1],> 128 µg/mL
same,MIC,Candida albicans [1],> 128 µg/mL
same,MFC,"eight fungal species [2]; across eight species, read-out: Geometric mean MFC",140 µg/mL
same,MIC,"eight fungal species [2]; geometric mean across eight species, read-out: GM fungal MIC",69.8 µg/mL
same,MIC,eight fungal species [2]; read-out: Geometric mean MIC,69.8 µg/mL
same,FICI,Candida glabrata [3]; FLC:INH combination,≥4
same,INH MICc,Candida glabrata [3]; [19],32
same,FLC FD (MIC-MICc fold decrease),Candida glabrata [3]; [20],-2
same,INH FD (MIC-MICc fold decrease),Candida glabrata [3]; FLC:INH combination,1
same,FICI,Candida glabrata [3]; ITR:INH combination,1
same,INH MICc,Candida glabrata [3]; [21],4
same,ITR FD (MIC-MICc fold decrease),Candida glabrata [3]; [22],2
same,INH FD (MIC-MICc fold decrease),Candida glabrata [3]; ITR:INH combination,8
same,FICI,Candida glabrata [3]; KET:INH combination,2
same,INH MICc,Candida glabrata [3]; [23],8
same,KET FD (MIC-MICc fold decrease),Candida glabrata [3]; [24],1
same,INH FD (MIC-MICc fold decrease),Candida glabrata [3]; KET:INH combination,4
same,MFC,[4],128 µg/mL
same,MIC,[4],16 µg/mL
same,MFC,Candida glabrata [5],128 µg/mL
same,MIC,Candida glabrata [5],128 µg/mL
same,FICI (FLC:INH),Trichophyton rubrum [6]; [25],≥4
same,FICI (ITR:INH),Trichophyton rubrum [6]; [26],2.13
same,FICI (KET:INH),Trichophyton rubrum [6]; [27],≥4
same,INH MICc (FLC:INH),Trichophyton rubrum [6]; [28],64
same,INH MICc (ITR:INH),Trichophyton rubrum [6]; [29],32
same,INH MICc (KET:INH),Trichophyton rubrum [6]; [30],128
same,FLC FD (FLC:INH),Trichophyton rubrum [6]; [31],2
same,ITR FD (ITR:INH),Trichophyton rubrum [6]; [32],8
same,KET FD (KET:INH),Trichophyton rubrum [6]; [33],1
same,INH FD (FLC:INH),Trichophyton rubrum [6]; [34],-4
same,INH FD (ITR:INH),Trichophyton rubrum [6]; [35],-2
same,INH FD (KET:INH),Trichophyton rubrum [6]; [36],< -4
same,IC50,"HEK-293T cells; HEK-293T cells, read-out: IC50",6.19 µg/mL
same,IC50,HEK-293T cells; read-out: HEK IC50,6.19 µg/mL
same,GM fungal MICc,eight fungal species [7],25.4
same,MFC,Cryptococcus neoformans [8],32 µg/mL
same,MIC,Cryptococcus neoformans [8],16 µg/mL
same,FICI,[9]; FLC:INH combination,1.5
same,INH MICc,[9]; [19],32
same,FLC FD (MIC-MICc fold decrease),[9]; [20],2
same,INH FD (MIC-MICc fold decrease),[9]; FLC:INH combination,1
same,FICI,[9]; ITR:INH combination,2
same,INH MICc,[9]; [21],32
same,ITR FD (MIC-MICc fold decrease),[9]; [22],1
same,INH FD (MIC-MICc fold decrease),[9]; ITR:INH combination,1
same,FICI,[9]; KET:INH combination,1.13
same,INH MICc,[9]; [23],32
same,KET FD (MIC-MICc fold decrease),[9]; [24],8
same,INH FD (MIC-MICc fold decrease),[9]; KET:INH combination,1
same,FICI (FLC:INH),Aspergillus flavus [10]; [25],0.75
same,FICI (ITR:INH),Aspergillus flavus [10]; [26],1.01
same,FICI (KET:INH),Aspergillus flavus [10]; [27],0.31
same,INH MICc (FLC:INH),Aspergillus flavus [10]; [28],64
same,INH MICc (ITR:INH),Aspergillus flavus [10]; [29],2
same,INH MICc (KET:INH),Aspergillus flavus [10]; [30],16
same,FLC FD (FLC:INH),Aspergillus flavus [10]; [31],2
same,ITR FD (ITR:INH),Aspergillus flavus [10]; [32],1
same,KET FD (KET:INH),Aspergillus flavus [10]; [33],4
same,INH FD (FLC:INH),Aspergillus flavus [10]; [34],4
same,INH FD (ITR:INH),Aspergillus flavus [10]; [35],128
same,INH FD (KET:INH),Aspergillus flavus [10]; [36],16
same,FICI (FLC:INH),Aspergillus fumigatus [11]; [25],1.25
same,FICI (ITR:INH),Aspergillus fumigatus [11]; [26],0.53
same,FICI (KET:INH),Aspergillus fumigatus [11]; [27],3
same,INH MICc (FLC:INH),Aspergillus fumigatus [11]; [28],64
same,INH MICc (ITR:INH),Aspergillus fumigatus [11]; [29],2
same,INH MICc (KET:INH),Aspergillus fumigatus [11]; [30],128
same,FLC FD (FLC:INH),Aspergillus fumigatus [11]; [31],4
same,ITR FD (ITR:INH),Aspergillus fumigatus [11]; [32],2
same,KET FD (KET:INH),Aspergillus fumigatus [11]; [33],1
same,INH FD (FLC:INH),Aspergillus fumigatus [11]; [34],1
same,INH FD (ITR:INH),Aspergillus fumigatus [11]; [35],32
same,INH FD (KET:INH),Aspergillus fumigatus [11]; [36],-2
same,MFC,Aspergillus flavus [12],> 128 µg/mL
same,MIC,Aspergillus flavus [12],> 128 µg/mL
same,FICI,Cryptococcus neoformans [13]; FLC:INH combination,1.5
same,INH MICc,Cryptococcus neoformans [13]; [19],32
same,FLC FD (MIC-MICc fold decrease),Cryptococcus neoformans [13]; [20],1
same,INH FD (MIC-MICc fold decrease),Cryptococcus neoformans [13]; FLC:INH combination,2
same,FICI,Cryptococcus neoformans [13]; ITR:INH combination,0.75
same,INH MICc,Cryptococcus neoformans [13]; [21],16
same,ITR FD (MIC-MICc fold decrease),Cryptococcus neoformans [13]; [22],2
same,INH FD (MIC-MICc fold decrease),Cryptococcus neoformans [13]; ITR:INH combination,4
same,FICI,Cryptococcus neoformans [13]; KET:INH combination,3
same,INH MICc,Cryptococcus neoformans [13]; [23],64
same,KET FD (MIC-MICc fold decrease),Cryptococcus neoformans [13]; [24],-2
same,INH FD (MIC-MICc fold decrease),Cryptococcus neoformans [13]; KET:INH combination,1
same,MFC,Aspergillus fumigatus [14],128 µg/mL
same,MIC,Aspergillus fumigatus [14],> 128 µg/mL
same,FICI,Candida albicans [15]; FLC:INH combination,1.06
same,INH MICc,Candida albicans [15]; [19],8
same,FLC FD (MIC-MICc fold decrease),Candida albicans [15]; [20],1
same,INH FD (MIC-MICc fold decrease),Candida albicans [15]; FLC:INH combination,16
same,FICI,Candida albicans [15]; ITR:INH combination,1.06
same,INH MICc,Candida albicans [15]; [21],8
same,ITR FD (MIC-MICc fold decrease),Candida albicans [15]; [22],1
same,INH FD (MIC-MICc fold decrease),Candida albicans [15]; ITR:INH combination,16
same,FICI,Candida albicans [15]; KET:INH combination,1.06
same,INH MICc,Candida albicans [15]; [23],8
same,KET FD (MIC-MICc fold decrease),Candida albicans [15]; [24],1
same,INH FD (MIC-MICc fold decrease),Candida albicans [15]; KET:INH combination,16
same,MFC,Trichophyton rubrum [16],> 128 µg/mL
same,MIC,Trichophyton rubrum [16],16 µg/mL
same,FICI (FLC:INH),Saccharomyces cerevisiae [17]; [25],≥4
same,FICI (ITR:INH),Saccharomyces cerevisiae [17]; [26],2
same,FICI (KET:INH),Saccharomyces cerevisiae [17]; [27],1.25
same,INH MICc (FLC:INH),Saccharomyces cerevisiae [17]; [28],256
same,INH MICc (ITR:INH),Saccharomyces cerevisiae [17]; [29],64
same,INH MICc (KET:INH),Saccharomyces cerevisiae [17]; [30],64
same,FLC FD (FLC:INH),Saccharomyces cerevisiae [17]; [31],-2
same,ITR FD (ITR:INH),Saccharomyces cerevisiae [17]; [32],1
same,KET FD (KET:INH),Saccharomyces cerevisiae [17]; [33],4
same,INH FD (FLC:INH),Saccharomyces cerevisiae [17]; [34],-4
same,INH FD (ITR:INH),Saccharomyces cerevisiae [17]; [35],1
same,INH FD (KET:INH),Saccharomyces cerevisiae [17]; [36],1
same,MFC,Saccharomyces cerevisiae [18],128 µg/mL
same,MIC,Saccharomyces cerevisiae [18],64 µg/mL
